Experimental data: patent publication US20210251267A1, “LIGUSTROSIDIC ACID AND DERIVATIVES THEREOF FOR SWEETNESS ENHANCEMENT” (International Flavors & Fragrances Inc., priority 2018, published 2021)

Tests used:
Design in all cases: species or system human
[1] = Enhancement of Luo Han Guo sweetness (flavor profile); settings: Luo Han Guo solution (120 ppm), all levels tested
Description: (§1) The term “sweetness” or “sweetness intensity” is understood to mean the relative strength of sweet sensation as observed or experienced by an individual, e.g., a human, or a degree or amount of sweetness detected by a taster, for example on the scale from 0 (none) to 8 (very strong) used in sensory evaluations according to the procedure described in American Society for Testing Materials, Special Technical Publication-434: “Manual on Sensory Testing Methods,” ASTM International, West Conshohocken, Pa. (1996).
A Luo Han Guo (Biovittoria Ltd., New Zealand) solution was prepared in water (120 ppm). Ligustrosidic acid and 2′-hydroxy ligustrosidic acid solutions were prepared as above (EXAMPLE II). The flavor profile of the Luo Han Guo solution with added ligustrosidic acid and 2′-hydroxy ligustrosidic acid is reported in the following:
(§2) Solutions of sucrose (4%) and Luo Han Guo (120 ppm) were prepared as above (EXAMPLE II and III). In addition, solutions of fructose (3.4%), Reb A (GLG Life Tech Corporation, Canada) (90 ppm) and GSG (Glucosyl Steviol Glucosides, GLG Life Tech Corporation, Canada) (200 ppm) were also prepared in water.
The Luo Han Guo solution (120 ppm) with the addition of various amount of Carica papaya leave extract was evaluated.

[2] = Enhancement of sucrose sweetness (flavor profile of sucrose solution with added substance); settings: sucrose solution (4%), all levels tested
Description: as §1
(§3) A sucrose solution (4%) was prepared in water. Each of ligustrosidic acid and 2′-hydroxy ligustrosidic acid solutions of different concentrations was prepared in ethanol solution in water (50%). Ligustrosidic acid and 2′-hydroxy ligustrosidic acid were evaluated at 1 and 200 ppm, respectively.
The flavor profile of the sucrose solution with added ligustrosidic acid and 2′-hydroxy ligustrosidic acid is reported in the following:
as §2
The sucrose solution (4%) with the addition of various amount of Carica papaya leave extract was evaluated.

[3] = Taste and smell of the compounds alone
Protocol: as §3

Compound	Overall effect on Luo Han Guo sweetness (summary in words) ([1]; listed as Ligustrosidic acid)	Overall effect on Luo Han Guo sweetness (summary in words) ([1]; listed as ligustrosidic acid)	Overall effect on sucrose sweetness (summary in words) ([2]; listed as Ligustrosidic acid)	Overall effect on sucrose sweetness (summary in words) ([2]; listed as ligustrosidic acid)	Taste and smell of the compound alone ([3]; evaluated at 1 ppm)	Overall effect on Luo Han Guo sweetness (summary in words) [1]	Overall effect on sucrose sweetness (summary in words) [2]	Taste and smell of the compound alone ([3]; evaluated at 200 ppm)
COC(=O)C1=COC(OC2OC(CO)C(O)C(O)C2O)C(=CC(=O)O)C1CC(=O)OCCc1ccc(O)cc1 (stereo in doubt) [Ligustrosidic Acid, [3-(carboxymethylene)-2-(β-D-glucopyranosyloxy)-3,4-dihydro-5-(methoxycarbonyl)]-2H-pyran-4-acetic acid-α-[2-(4-hydroxyphenyl)ethyl]ester]	particularly strong effect	enhanced overall sweetness, body and mouthfeel	particularly strong effect	enhanced overall sweetness, body and mouthfeel	devoid of taste and smell	–	–	–
COC(=O)C1=COC(OC2OC(CO)C(O)C(O)C2O)/C(=C\C(=O)O)C1CC(=O)OCCc1ccc(O)c(O)c1 (centres unmarked) [2′-Hydroxy Ligustrosidic Acid, 2′-hydroxy ligustrosidic acid]	–	–	–	–	–	strong effect in sweetness enhancement	strong effect in sweetness enhancement	devoid of taste and smell
